Source: patent US20240351965A1, “Synthesis and Evaluation of Novel (4-Hydroxyphenyl) Substituted Carbocycles as Potent and Selective Estrogen Receptor Beta Agonists” (Marquette University, priority 2021, published 2024)
Read-outs that look alike come from different tables or passages of the source.

Experiments:
ERβ [1] = molecular target: T1, ERβ (Homo sapiens, UniProt Q92731); test: TR-FRET ligand binding displacement assay (LanthaScreen)
Target sequence in this assay (Q92731 264-498 limits assumed): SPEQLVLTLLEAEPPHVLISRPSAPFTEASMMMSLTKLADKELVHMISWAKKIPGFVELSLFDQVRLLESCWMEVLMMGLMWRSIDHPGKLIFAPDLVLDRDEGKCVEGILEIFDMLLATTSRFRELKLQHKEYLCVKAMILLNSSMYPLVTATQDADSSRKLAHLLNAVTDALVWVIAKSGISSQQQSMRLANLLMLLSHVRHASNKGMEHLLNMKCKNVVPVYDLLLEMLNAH

ERβ [2] = molecular target: T1, ERβ; test: TR-FRET coactivator binding (recruitment) assay; assay type: biochemical
Target sequence in this assay (Q92731 264-498 limits assumed): as above

ERβ [3] = molecular target: T1, ERβ; settings: cited from earlier work
Target sequence in this assay (Q92731 whole entry): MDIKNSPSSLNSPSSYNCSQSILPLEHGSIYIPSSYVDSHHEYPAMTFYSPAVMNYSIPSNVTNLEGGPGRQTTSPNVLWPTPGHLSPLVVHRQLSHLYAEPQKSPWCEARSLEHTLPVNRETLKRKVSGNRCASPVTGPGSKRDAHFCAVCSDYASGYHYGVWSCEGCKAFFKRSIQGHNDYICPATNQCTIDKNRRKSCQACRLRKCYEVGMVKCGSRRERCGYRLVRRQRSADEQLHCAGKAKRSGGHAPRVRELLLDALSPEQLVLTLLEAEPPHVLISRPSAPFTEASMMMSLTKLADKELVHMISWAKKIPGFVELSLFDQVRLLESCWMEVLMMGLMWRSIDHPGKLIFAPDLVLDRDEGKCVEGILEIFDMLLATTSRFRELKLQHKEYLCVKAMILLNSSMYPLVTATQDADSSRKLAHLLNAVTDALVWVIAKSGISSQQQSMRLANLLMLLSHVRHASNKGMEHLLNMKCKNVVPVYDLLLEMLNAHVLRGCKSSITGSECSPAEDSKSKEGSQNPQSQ

CYP3A4 = molecular target: T2, CYP3A4 (Homo sapiens, UniProt P08684); test: Cytochrome P450 inhibition (P450-Glo), CYP3A4; assay type: in vitro ADME
T2 construct: purchased Promega (P450-Glo Screening Systems)
T2 sequence (P08684 whole entry): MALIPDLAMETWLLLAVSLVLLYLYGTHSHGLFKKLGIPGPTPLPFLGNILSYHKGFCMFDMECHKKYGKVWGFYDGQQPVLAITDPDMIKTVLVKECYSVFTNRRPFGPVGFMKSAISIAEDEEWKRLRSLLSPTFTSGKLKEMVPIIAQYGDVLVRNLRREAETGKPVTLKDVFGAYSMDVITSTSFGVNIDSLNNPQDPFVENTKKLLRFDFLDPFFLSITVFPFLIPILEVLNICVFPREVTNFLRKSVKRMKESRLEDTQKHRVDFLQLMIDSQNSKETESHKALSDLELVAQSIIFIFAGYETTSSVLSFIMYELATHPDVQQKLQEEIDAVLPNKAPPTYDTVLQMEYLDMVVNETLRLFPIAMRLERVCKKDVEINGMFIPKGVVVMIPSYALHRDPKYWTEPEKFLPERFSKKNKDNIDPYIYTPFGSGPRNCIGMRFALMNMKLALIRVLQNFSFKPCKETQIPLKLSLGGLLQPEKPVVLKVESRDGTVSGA
Protocol: (§1) A screen of Cytochrome p450 inhibition was performed using the Promega P450-Glo™ Screening Systems. The Screening Systems' manual instructions were followed for CYP2C9, CYP2D6, or CYP3A4 enzymes with Luciferin-H, Luciferin-ME EGE or Luciferin-PPXE as substrates, respectively. The components of the kits, i.e., membrane enzymes, control enzymes, substrates and potassium phosphate buffer and or TRIS buffer were combined according to the System-manual's recommended final concentrations. Reactions were pre-incubated in white 96-well flat-bottom plates at 37° C. for 10 min before starting reactions with 2×NADPH regeneration buffer. The 96-well plates were incubated according to the recommended times in the linear range for each enzyme/substrate reaction. The reactions were stopped using 2× Luciferin Detection Reagent. After 20 minutes, the luciferase product was detected using a SpectraMax M5 Molecular Devices plate reader on the end-point luminescence setting. Positive control inhibitors for CYP2C9, CYP2D6, and CYP3A4 enzymes were assayed at a final concentration of 10 μM sulfaphenazole, 1 μM quinidine and 5 μM ketoconazole, respectively. Serial dilutions of 5a/b and (±)-11 were assayed at final concentrations of […], 7.812, 3.906, 1.953, 0.977, 0.488 μM. Inhibition data were analyzed using GraphPad Prism® 6 for Windows, ver. 6.07 (Jun. 12, 2015) software. Raw data were normalized against the control enzyme and untreated CYP enzyme means and then analyzed through non-linear regression using log (inhibitor) vs normalized dose-response curves to assess IC50s. Standard deviations were calculated from Best-fit values. Data were normalized to vehicle and positive controls (sulfaphenazole for CYP2C9, quinidine for CYP2D6, and ketoconazole for CYP3A4) and nonlinear square fits of the data were conducted using Prism 6 (GraphPad).

CYP2C9 = molecular target: T3, CYP2C9 (Homo sapiens, UniProt P11712); test: Cytochrome P450 inhibition (P450-Glo), CYP2C9; assay type: in vitro ADME; settings: for IC50: tested up to 62.5 μM
T3 construct: purchased Promega (P450-Glo Screening Systems)
T3 sequence (P11712 whole entry): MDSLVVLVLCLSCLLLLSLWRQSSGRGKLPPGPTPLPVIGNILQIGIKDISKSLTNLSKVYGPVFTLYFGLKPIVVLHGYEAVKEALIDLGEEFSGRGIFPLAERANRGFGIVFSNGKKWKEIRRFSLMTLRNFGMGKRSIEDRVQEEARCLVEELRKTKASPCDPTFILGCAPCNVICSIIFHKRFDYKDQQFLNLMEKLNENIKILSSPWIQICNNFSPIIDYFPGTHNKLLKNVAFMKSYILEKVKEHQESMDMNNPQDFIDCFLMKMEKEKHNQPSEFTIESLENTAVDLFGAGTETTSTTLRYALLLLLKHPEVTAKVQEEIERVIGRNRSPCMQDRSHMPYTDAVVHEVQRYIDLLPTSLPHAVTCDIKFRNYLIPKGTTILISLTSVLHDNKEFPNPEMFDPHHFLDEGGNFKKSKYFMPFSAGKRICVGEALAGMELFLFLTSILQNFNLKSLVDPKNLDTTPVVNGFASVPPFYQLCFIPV
Protocol: as §1

CYP2D6 = molecular target: T4, CYP2D6 (Homo sapiens, UniProt P10635); test: Cytochrome P450 inhibition (P450-Glo), CYP2D6; assay type: in vitro ADME
T4 construct: purchased Promega (P450-Glo Screening Systems)
T4 sequence (P10635 whole entry): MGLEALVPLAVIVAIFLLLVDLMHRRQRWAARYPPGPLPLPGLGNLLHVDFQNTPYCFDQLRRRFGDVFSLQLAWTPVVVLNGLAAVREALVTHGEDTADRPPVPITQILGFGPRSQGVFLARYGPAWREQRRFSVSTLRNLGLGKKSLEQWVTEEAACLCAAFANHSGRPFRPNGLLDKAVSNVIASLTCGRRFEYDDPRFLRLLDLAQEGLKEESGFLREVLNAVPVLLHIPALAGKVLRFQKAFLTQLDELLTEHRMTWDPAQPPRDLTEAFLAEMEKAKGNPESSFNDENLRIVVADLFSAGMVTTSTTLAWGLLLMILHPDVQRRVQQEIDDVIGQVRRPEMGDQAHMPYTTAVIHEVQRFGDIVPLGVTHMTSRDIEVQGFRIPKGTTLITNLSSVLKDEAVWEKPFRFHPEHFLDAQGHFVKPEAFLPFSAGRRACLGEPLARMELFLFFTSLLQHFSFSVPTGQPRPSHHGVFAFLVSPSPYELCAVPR
Protocol: as §1

[4] = human, probe Luciferin-PPXE, read-out: CYP3A4 inhibition: not inhibited at concentrations up to (abstract)
[5] = read-out: CYP3A4 inhibition: no inhibition up to
[6] = human, probe Luciferin-ME EGE, read-out: CYP2D6 inhibition: not inhibited at concentrations up to (abstract)
[7] = read-out: CYP2D6 inhibition: no inhibition up to

SMILES	IC50 (ERβ [1]) [µM]	IC50 (ERβ [2]) [µM]	ERβ selectivity (literature) (ERβ [3]) [fold]	EC50 (ERβ [3]; read-out: EC50 (literature, ERβ agonist)) [µM]	CYP3A4 binding in enzyme kinetic inhibition assay (CYP3A4)	IC50 (CYP3A4; [4]) [µM]	IC50 (CYP3A4; [5]) [µM]	IC50 (CYP2C9) [µM]	CYP2D6 binding in enzyme kinetic inhibition assay (CYP2D6)	IC50 (CYP2D6; [6]) [µM]	IC50 (CYP2D6; [7]) [µM]	CYP2C9 binding in enzyme kinetic inhibition assay (CYP2C9)
O=C1CC2(CCC(c3ccc(O)cc3)CC2)C1 [compound 10, 7-(4-Hydroxyphenyl)spiro[3.5]nonan-2-one]	2.22 ± 2.66	1.64 ± 0.301										
OCC1CCCC(c2ccc(O)cc2)CC1 (stereo not shown) [ISP163]			318	0.033 ± 0.005								
OCC12CC3CC(C1)C(c1ccc(O)cc1)C(C3)C2 (stereo not shown) [5a/b, 4-(4-Hydroxyphenyl)tricyclo[3.3.1.1^3,7]decane-1-methanol]					weak binding only to CYP2C9	> 62.5	> 62.5	10 ± 0.5	weak binding only to CYP2C9	> 62.5	> 62.5	
Oc1ccc(C2CCC3(CC2)CC(O)C3)cc1 (racemic) [(±)-11, 7-(4-hydroxyphenyl)spiro[3.5]nonan-2-ol]					does not bind to any of these CYP450 enzymes with significant activity	> 62.5	> 62.5	> 62.5	does not bind to any of these CYP450 enzymes with significant activity	> 62.5	> 62.5	does not bind to any of these CYP450 enzymes with significant activity
